Experimental data reported in patent publication US20160039825A1 (BIOGEN MA INC., priority 2013, published 2016).
Structures can show the parent of a compound that is named as a salt.

Biological target: T1, Human ATX protein (Homo sapiens, UniProt Q13822)
T1 construct: made in house
Assay: Autotaxin (ATX) assay, FRET with FS-3 substrate
Assay type: biochemical
Details: for IC50: upper bound bins (no greater than 100, 250 or 500 nM), FS-3 2 μM, ATX 1.0 μg/mL
In short: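 In-house human ATX (1.0 μg/mL final) was preincubated with compound for 30 min at room temperature in Tris buffer pH 7.4 with NaCl, KCl, CaCl2, MgCl2 and 1 mg/mL fatty acid-free BSA. FS-3 (2 μM final) was added and the plate shaken 2 h at room temperature in the dark. Fluorescence was read at ex 485/em 538 nm.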

Row | SMILES | IC50 | inhibition at 10 µM (10 uM compound)
1 | O=C(OCc1cc(C(F)(F)F)cc(C(F)(F)F)c1)N1CCn2nc(C(=O)N3CCNCC3)cc2C1 [Example 435] | ≤ 100 nM | 
2 | CCC1CC(Nc2cc3n(n2)CCCN(C(=O)OCc2cc(C(F)(F)F)cc(C(F)(F)F)c2)C3)CCN1 (stereo not drawn) [Example 323] | ≤ 100 nM | 
3 | O=C(OCc1cc(C(F)(F)F)cc(C(F)(F)F)c1)N1CCCn2nc(NC3CC4CCCC(C3)N4)cc2C1 (stereo not drawn) [Example 316] | ≤ 100 nM | 
4 | O=C(OCc1cc(Cl)cc(C(F)(F)F)c1)N1CCn2nc(NC3CCNCC3)cc2C1 [Example 274, 3-chloro-5-(trifluoromethyl)benzyl 2-(piperidin-4-ylamino)-6,7-dihydropyrazolo[1,5-a]pyrazine-5(4H)-carboxylate] | ≤ 100 nM | 
5 | O=C(OCc1cc(Cl)cc(C(F)(F)F)c1)N1CCCn2nc(C(O)C(F)(F)F)cc2C1 (stereo not drawn) [Example 286, 3-chloro-5-(trifluoromethyl)benzyl 2-(2,2,2-trifluoro-1-hydroxyethyl)-7,8-dihydro-4H-pyrazolo[1,5-a][1,4]diazepine-5(6H)-carboxylate] | ≤ 100 nM | 
6 | CC(NC1CC1)c1cc2n(n1)CCCN(C(=O)OCc1cc(C(F)(F)F)cc(C(F)(F)F)c1)C2 (stereo not drawn) [Example 508] | ≤ 100 nM | 
7 | CCC1(CC)CNCCN1C(=O)c1cc2n(n1)CCCN(C(=O)OCc1cc(C(F)(F)F)cc(C(F)(F)F)c1)C2 [Example 241] | ≤ 100 nM | 
8 | CCN1CCN(c2cc3n(n2)CCCN(C(=O)OCc2cc(C(F)(F)F)cc(C(F)(F)F)c2)C3)CC1 [Example 354] | ≤ 100 nM | 
9 | CC1CNCC(C)N1C(=O)c1cc2n(n1)CCN(C(=O)OCc1cc(Cl)cc(C(F)(F)F)c1)C2 (stereo not drawn) [Example 162, 3-chloro-5-(trifluoromethyl)benzyl 2-(2,6-dimethylpiperazine-1-carbonyl)-6,7-dihydropyrazolo[1,5-a]pyrazine-5(4H)-carboxylate] | ≤ 100 nM | 
10 | CCOC(=O)c1cc2n(n1)CCCN(C(=O)OCc1cc(Cl)cc(Cl)c1)C2 [Example 1, 5-(3,5-Dichlorobenzyl) 2-ethyl 7,8-dihydro-4H-pyrazolo[1,5-a][1,4]diazepine-2,5(6H)-dicarboxylate] | ≤ 500 nM | 
11 | CN1CCN(C(=O)c2cc3n(n2)CCCN(C(=O)OCc2cc(Cl)cc(C(F)(F)F)c2)C3)C(C#N)C1 (stereo not drawn) [Example 183] | ≤ 100 nM | 
12 | CCNC(=O)c1cc2n(n1)CCCN(C(=O)OCc1cc(Cl)cc(Cl)c1)C2 [Example 29, 3,5-Dichlorobenzyl 2-(ethylcarbamoyl)-7,8-dihydro-4H-pyrazolo[1,5-a][1,4]diazepine-5(6H)-carboxylate] | ≤ 100 nM | 
13 | CNC1CN(C(=O)c2cc3n(n2)CCN(C(=O)OCc2cc(C(F)(F)F)cc(C(F)(F)F)c2)C3)C1 [Example 438] | ≤ 100 nM | 
14 | CN1CCN(c2cc3n(n2)CCCN(C(=O)OCc2cc(C(F)(F)F)cc(C(F)(F)F)c2)C3)CC12CC2 [Example 353] | ≤ 100 nM | 
15 | CCOC(=O)c1cc2n(n1)CCN(C(=O)OCc1cc(Cl)cc(C(F)(F)F)c1)C2 [Example 402, 5-(3-chloro-5-(trifluoromethyl)benzyl) 2-ethyl 6,7-dihydropyrazolo[1,5-a]pyrazine-2,5(4H)-dicarboxylate] | ≤ 100 nM | 
16 | O=C(O)Cn1cc(-c2cc3n(n2)CCCN(C(=O)OCc2cc(C(F)(F)F)cc(C(F)(F)F)c2)C3)cn1 [Example 412] | ≤ 100 nM | 
17 | O=C(OCc1cc(Cl)cc(C(F)(F)F)c1)N1CCCn2nc(C(=O)N3CCNC(C(F)(F)F)C3)cc2C1 (stereo not drawn) [Example 189] | ≤ 100 nM | 
18 | O=C(OCc1cc(C(F)(F)F)cc(C(F)(F)F)c1)N1CCCn2nc(CO)cc2C1 [Example 282, 3,5-bis(trifluoromethyl)benzyl 2-(hydroxymethyl)-7,8-dihydro-4H-pyrazolo[1,5-a][1,4]diazepine-5(6H)-carboxylate] |  | 60%
19 | NS(=O)(=O)c1cc2n(n1)CCCN(C(=O)OCc1cc(C(F)(F)F)cc(C(F)(F)F)c1)C2 [Example 301, 3,5-bis(trifluoromethyl)benzyl 2-sulfamoyl-7,8-dihydro-4H-pyrazolo[1,5-a][1,4]diazepine-5(6H)-carboxylate] | ≤ 250 nM | 
20 | CC1CN(C(=O)c2cc3n(n2)CCN(C(=O)OCc2cc(C(F)(F)F)cc(C(F)(F)F)c2)C3)CC(C)N1 (stereo not drawn) [Example 433] | ≤ 100 nM | 
21 | O=C(OCc1cc(C(F)(F)F)cc(C(F)(F)F)c1)N1CCCn2nc(N3CCN(CCO)CC3)cc2C1 [Example 358] | ≤ 100 nM | 
22 | CC1c2cc(C(=O)O)nn2CCCN1C(=O)CCc1cc(Cl)cc(Cl)c1 (stereo not drawn) [Example 420] | ≤ 500 nM | 
23 | NC1CCN(C(=O)c2cc3n(n2)CCN(C(=O)OCc2cc(C(F)(F)F)cc(C(F)(F)F)c2)C3)CC1 [Example 422, 3,5-bis(trifluoromethyl)benzyl 2-(4-aminopiperidine-1-carbonyl)-6,7-dihydropyrazolo[1,5-a]pyrazine-5(4H)-carboxylate hydrochloride] | ≤ 100 nM | 
24 | O=C(OCc1cc(C(F)(F)F)cc(C(F)(F)F)c1)N1CCCn2nc(-c3ccncc3)cc2C1 [Example 367] | ≤ 100 nM | 

Row | SMILES | IC50 | inhibition at 10 µM (10 uM compound)
25 | CN1C2CCC1CN(C(=O)c1cc3n(c1)CCCN(C(=O)OCc1cc(Cl)cc(C(F)(F)F)c1)C3)C2 [Example 278, 3-chloro-5-(trifluoromethyl)benzyl 8-(8-methyl-3,8-diazabicyclo[3.2.1]octane-3-carbonyl)-4,5-dihydro-1H-pyrrolo[1,2-a][1,4]diazepine-2(3H)-carboxylate] | ≤ 100 nM | 
26 | O=C(O)C1CN(C(=O)c2cc3n(n2)CCCN(C(=O)OCc2cc(Cl)cc(C(F)(F)F)c2)C3)CCN1 (stereo not drawn) [Example 227] | ≤ 100 nM | 
27 | CC1(C)CN(C(=O)c2cc3n(n2)CCCN(C(=O)OCc2cc(Cl)cc(C(F)(F)F)c2)C3)CCN1 [Example 200] | ≤ 100 nM | 
28 | O=C(NC1CCCCC1)c1cc2n(n1)CCN(C(=O)OCc1cc(C(F)(F)F)cc(C(F)(F)F)c1)C2 [Example 492] | ≤ 100 nM | 
29 | O=C(CN1CCOCC1)c1cc2n(n1)CCCN(C(=O)OCc1cc(Cl)cc(C(F)(F)F)c1)C2 [Example 271] | ≤ 100 nM | 
30 | CCOC(=O)c1cc2n(c1)CCCN(C(=O)OCc1cc(Cl)cc(Cl)c1)C2 [Example 99, 2-(3,5-Dichlorobenzyl) 8-ethyl 4,5-dihydro-1H-pyrrolo[1,2-a][1,4]diazepine-2,8(3H)-dicarboxylate] | ≤ 500 nM | 
31 | CN1CCC(c2cc3n(n2)CCCN(C(=O)OCc2cc(C(F)(F)F)cc(C(F)(F)F)c2)C3)C1 (stereo not drawn) [Example 385] | ≤ 250 nM | 
32 | CN1CCN(S(=O)(=O)c2cc3n(n2)CCCN(C(=O)OCc2cc(C(F)(F)F)cc(C(F)(F)F)c2)C3)CC1 [Example 308] | ≤ 100 nM | 
33 | COC(=O)C1CC2CCCC(C1)N2C(=O)c1cc2n(n1)CCCN(C(=O)OCc1cc(Cl)cc(Cl)c1)C2 (stereo not drawn) [Example 95, 3,5-Dichlorobenzyl 2-(3-(methoxycarbonyl)-9-azabicyclo[3.3.1]nonane-9-carbonyl)-7,8-dihydro-4H-pyrazolo[1,5-a][1,4]diazepine-5(6H)-carboxylate] | ≤ 100 nM | 
34 | O=C(CCl)c1cc2n(n1)CCCN(C(=O)OCc1cc(Cl)cc(C(F)(F)F)c1)C2 [Example 250, 3-Chloro-5-(trifluoromethyl)benzyl 2-(2-chloroacetyl)-7,8-dihydro-4H-pyrazolo[1,5-a][1,4]diazepine-5(6H)-carboxylate] | ≤ 100 nM | 
35 | CCC1(CC)CNCCN1C(=O)c1cc2n(n1)CCCN(C(=O)OCc1cc(Cl)cc(C(F)(F)F)c1)C2 [Example 231] | ≤ 100 nM | 
36 | CC(C(=O)O)c1cc2n(n1)CCCN(C(=O)OCc1cc(C(F)(F)F)cc(C(F)(F)F)c1)C2 (stereo not drawn) [Example 387, 2-(5-(((3,5-bis(Trifluoromethyl)benzyl)oxy)carbonyl)-5,6,7,8-tetrahydro-4H-pyrazolo[1,5-a][1,4]diazepin-2-yl)propanoic acid] | ≤ 100 nM | 
37 | CC(C)(C)OC(=O)N1C2CCC1CN(C(=O)c1cc3n(n1)CCN(C(=O)OCc1cc(C(F)(F)F)cc(C(F)(F)F)c1)C3)C2 [Example 470] | ≤ 100 nM | 
38 | CC1CNCC(C)N1C(=O)c1cc2n(n1)CCCN(C(=O)OCc1cc(Cl)cc(C(F)(F)F)c1)C2 (stereo not drawn) [Example 199] | ≤ 100 nM | 
39 | O=C(O)c1cc2n(n1)CCN(C(=O)OCc1cc(Cl)cc(C(F)(F)F)c1)C2 [Example 410, 5-(((3-chloro-5-(trifluoromethyl)benzyl)oxy)carbonyl)-4,5,6,7-tetrahydropyrazolo[1,5-a]pyrazine-2-carboxylic acid] | ≤ 250 nM | 
40 | CC(c1cc2n(n1)CCN(C(=O)OCc1cc(C(F)(F)F)cc(C(F)(F)F)c1)C2)N1CCC(O)CC1 (stereo not drawn) [Example 457] | ≤ 250 nM | 
41 | CNC1CN(C(=O)c2cc3n(n2)CCCN(C(=O)OCc2cc(C(F)(F)F)cc(C(F)(F)F)c2)C3)C1 [Example 242] | ≤ 100 nM | 
42 | CC1CNCC(C)N1C(=O)c1cc2n(n1)CCN(C(=O)OCc1cc(C(F)(F)F)cc(C(F)(F)F)c1)C2 (stereo not drawn) [Example 430] | ≤ 100 nM | 
43 | CC(c1cc2n(n1)CCN(C(=O)OCc1cc(C(F)(F)F)cc(C(F)(F)F)c1)C2)N1CCC(C(=O)O)CC1 (stereo not drawn) [Example 456] | ≤ 250 nM | 
44 | O=C(O)C1CC2CCCC(C1)N2C(=O)c1cc2n(n1)CCCN(C(=O)NCc1cc(Cl)cc(Cl)c1)C2 (stereo not drawn) [Example 49, 9-(5-((3,5-Dichlorobenzyl)carbamoyl)-5,6,7,8-tetrahydro-4H-pyrazolo[1,5-a][1,4]diazepine-2-carbonyl)-9-azabicyclo[3.3.1]nonane-3-carboxylic acid] | ≤ 100 nM | 
45 | O=C(NCCO)c1cc2n(n1)CCN(C(=O)OCc1cc(C(F)(F)F)cc(C(F)(F)F)c1)C2 [Example 460, 3,5-bis(trifluoromethyl)benzyl 2-((2-hydroxyethyl)carbamoyl)-6,7-dihydropyrazolo[1,5-a]pyrazine-5(4H)-carboxylate] | ≤ 100 nM | 
46 | N#CC1CNCCN1C(=O)c1cc2n(n1)CCCN(C(=O)OCc1cc(Cl)cc(C(F)(F)F)c1)C2 (stereo not drawn) [Example 196] | ≤ 100 nM | 
47 | CN1CCN(C(=O)c2cc3n(n2)CCCN(C(=O)OCc2cc(Cl)cc(C(F)(F)F)c2)C3)C(C(F)(F)F)C1 (stereo not drawn) [Example 178] | ≤ 100 nM | 
48 | O=C(OCc1cc(Cl)cc(C(F)(F)F)c1)N1CCCn2nc(C(=O)N3CCNCC34CCCC4)cc2C1 [Example 234] | ≤ 100 nM | 
